Results as given in patent US11427563B2, “Aryl cyclopropyl-amino-isoquinolinyl amide compounds” (Aerie Pharmaceuticals, Inc., priority 2018, dated 2022).

Columns and labels:
[1] = target: JAK3 enzyme (Homo sapiens (Human), UniProt P52333); test: JAK kinase assay (JAK3); format: biochemical; settings: for IC50: Table 1
[2] = target: TYK2 (Homo sapiens (Human), UniProt P29597); test: TYK2 inhibition; format: biochemical; settings: Table 1
[3] = target: ROCK1 enzyme (Homo sapiens (Human), UniProt Q13464); test: ROCK kinase inhibition assay (ROCK1); format: biochemical; settings: Table 1
[4] = target: ROCK2 enzyme (Homo sapiens (Human), UniProt O75116); test: ROCK kinase inhibition assay (ROCK2); format: biochemical; settings: for IC50: Table 1
[5] = target: IKKβ (Homo sapiens (Human), UniProt O14920); test: IKKβ inhibition; format: biochemical; settings: for IC50: Table 1
[6] = test system: Stat5; test: Stat5 assay; format: cell-based; settings: Table 1
[7] = test system: Porcine Trabecular Meshwork cells (PTM); test: PTM-HTM assay (actin fiber length in PTM cells); format: cell-based; settings: Sus scrofa; Table 2
Procedure: Porcine Trabecular Meshwork cells (PTM) were isolated from freshly obtained enucleated porcine eyes. Immortalized Human Trabecular Meshwork cells (TM-1) were obtained through a kind gift from Donna Peters in the Department of Ophthalmology and Visual Sciences at the University of Wisconsin. Cells were plated onto fibronectin coated glass-bottom 96-well plates and allowed to attach overnight. Media was removed and replaced with test compound in media with 1% fetal bovine serum and incubated for various times. After incubation, cells were formaldehyde fixed, triton solubilized, and stained. PTM cells were stained with Alexa Fluor®488 phalloidin (F-actin) and Hoechst 33342 (nuclei). TM-1 cells were stained with anti-paxillin followed by Alexa Fluor®488 goat-anti-mouse IgG (focal adhesions) and Hoechst 33342 (nuclei). All staining reagents were obtained through Invitrogen. Images were collected on an INCell 2200 imager with a 20× objective. The actin fiber length and total area of focal adhesions were analyzed using custom algorithms developed in the INCell Developer Toolbox, v1.9.3. Data collected were converted to percent of control (untreated cells). Curves were fit to data in GraphPad Prizm using sigmoidal dose-response and constraining top and bottom to 100% and 0%, respectively.

[8] = Table 2, Ki from IC50 by Cheng-Prusoff

Sequence of IKKβ (O14920 whole entry, species assumed): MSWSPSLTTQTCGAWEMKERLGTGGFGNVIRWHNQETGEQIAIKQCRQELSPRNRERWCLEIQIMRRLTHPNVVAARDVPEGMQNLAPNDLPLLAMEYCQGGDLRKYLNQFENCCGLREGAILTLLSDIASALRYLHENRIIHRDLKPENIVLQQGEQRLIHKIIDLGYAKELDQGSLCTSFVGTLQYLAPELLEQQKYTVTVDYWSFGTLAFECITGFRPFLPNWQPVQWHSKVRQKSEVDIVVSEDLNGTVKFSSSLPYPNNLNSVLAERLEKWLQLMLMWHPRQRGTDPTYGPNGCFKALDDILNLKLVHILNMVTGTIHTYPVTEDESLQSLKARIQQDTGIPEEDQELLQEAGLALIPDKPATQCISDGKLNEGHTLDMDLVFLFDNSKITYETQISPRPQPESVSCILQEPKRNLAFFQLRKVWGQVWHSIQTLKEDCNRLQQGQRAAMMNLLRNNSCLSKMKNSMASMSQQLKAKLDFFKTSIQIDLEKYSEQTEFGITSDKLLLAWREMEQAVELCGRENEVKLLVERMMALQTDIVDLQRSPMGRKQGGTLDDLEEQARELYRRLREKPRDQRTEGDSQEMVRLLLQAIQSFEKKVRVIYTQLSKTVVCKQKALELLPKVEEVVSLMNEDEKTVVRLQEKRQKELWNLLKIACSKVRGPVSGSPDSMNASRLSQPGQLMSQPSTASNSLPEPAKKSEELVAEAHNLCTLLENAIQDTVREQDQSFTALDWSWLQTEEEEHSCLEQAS
Sequence of ROCK1 enzyme (Q13464 whole entry, species assumed): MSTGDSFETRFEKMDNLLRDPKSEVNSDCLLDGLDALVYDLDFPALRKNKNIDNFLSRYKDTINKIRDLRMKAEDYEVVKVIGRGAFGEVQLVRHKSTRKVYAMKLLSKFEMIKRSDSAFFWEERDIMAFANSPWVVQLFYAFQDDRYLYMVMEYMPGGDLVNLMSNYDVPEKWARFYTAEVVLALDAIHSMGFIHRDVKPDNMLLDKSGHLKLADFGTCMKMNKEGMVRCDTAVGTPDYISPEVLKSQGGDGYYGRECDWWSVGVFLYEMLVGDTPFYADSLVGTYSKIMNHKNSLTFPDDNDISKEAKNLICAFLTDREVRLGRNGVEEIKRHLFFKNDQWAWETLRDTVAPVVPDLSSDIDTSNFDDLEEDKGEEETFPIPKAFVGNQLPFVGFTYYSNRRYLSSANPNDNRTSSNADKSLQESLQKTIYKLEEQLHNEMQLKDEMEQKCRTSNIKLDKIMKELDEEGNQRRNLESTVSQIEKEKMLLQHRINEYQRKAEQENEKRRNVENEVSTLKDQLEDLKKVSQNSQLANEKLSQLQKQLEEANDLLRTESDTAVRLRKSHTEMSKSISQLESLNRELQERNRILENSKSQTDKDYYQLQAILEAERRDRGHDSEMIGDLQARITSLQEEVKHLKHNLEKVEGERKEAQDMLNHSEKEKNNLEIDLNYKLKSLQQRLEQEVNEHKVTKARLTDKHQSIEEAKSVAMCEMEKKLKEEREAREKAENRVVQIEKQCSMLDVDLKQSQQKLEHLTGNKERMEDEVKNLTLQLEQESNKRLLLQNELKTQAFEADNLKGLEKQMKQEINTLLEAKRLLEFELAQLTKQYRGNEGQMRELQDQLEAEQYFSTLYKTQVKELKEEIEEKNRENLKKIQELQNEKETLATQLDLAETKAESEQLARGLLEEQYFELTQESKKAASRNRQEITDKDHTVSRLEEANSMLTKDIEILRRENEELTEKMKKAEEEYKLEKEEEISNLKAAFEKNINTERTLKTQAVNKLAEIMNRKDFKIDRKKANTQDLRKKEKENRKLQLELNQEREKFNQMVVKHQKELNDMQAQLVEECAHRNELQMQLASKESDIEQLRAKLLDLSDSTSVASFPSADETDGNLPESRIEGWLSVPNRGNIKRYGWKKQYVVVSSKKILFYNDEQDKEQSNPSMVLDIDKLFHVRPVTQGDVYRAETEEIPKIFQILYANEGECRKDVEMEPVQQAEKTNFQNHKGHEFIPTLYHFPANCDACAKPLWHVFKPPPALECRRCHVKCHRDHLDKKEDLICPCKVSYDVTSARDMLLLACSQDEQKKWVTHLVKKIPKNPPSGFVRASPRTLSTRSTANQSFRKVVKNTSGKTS
Sequence of TYK2 (P29597 whole entry, species assumed): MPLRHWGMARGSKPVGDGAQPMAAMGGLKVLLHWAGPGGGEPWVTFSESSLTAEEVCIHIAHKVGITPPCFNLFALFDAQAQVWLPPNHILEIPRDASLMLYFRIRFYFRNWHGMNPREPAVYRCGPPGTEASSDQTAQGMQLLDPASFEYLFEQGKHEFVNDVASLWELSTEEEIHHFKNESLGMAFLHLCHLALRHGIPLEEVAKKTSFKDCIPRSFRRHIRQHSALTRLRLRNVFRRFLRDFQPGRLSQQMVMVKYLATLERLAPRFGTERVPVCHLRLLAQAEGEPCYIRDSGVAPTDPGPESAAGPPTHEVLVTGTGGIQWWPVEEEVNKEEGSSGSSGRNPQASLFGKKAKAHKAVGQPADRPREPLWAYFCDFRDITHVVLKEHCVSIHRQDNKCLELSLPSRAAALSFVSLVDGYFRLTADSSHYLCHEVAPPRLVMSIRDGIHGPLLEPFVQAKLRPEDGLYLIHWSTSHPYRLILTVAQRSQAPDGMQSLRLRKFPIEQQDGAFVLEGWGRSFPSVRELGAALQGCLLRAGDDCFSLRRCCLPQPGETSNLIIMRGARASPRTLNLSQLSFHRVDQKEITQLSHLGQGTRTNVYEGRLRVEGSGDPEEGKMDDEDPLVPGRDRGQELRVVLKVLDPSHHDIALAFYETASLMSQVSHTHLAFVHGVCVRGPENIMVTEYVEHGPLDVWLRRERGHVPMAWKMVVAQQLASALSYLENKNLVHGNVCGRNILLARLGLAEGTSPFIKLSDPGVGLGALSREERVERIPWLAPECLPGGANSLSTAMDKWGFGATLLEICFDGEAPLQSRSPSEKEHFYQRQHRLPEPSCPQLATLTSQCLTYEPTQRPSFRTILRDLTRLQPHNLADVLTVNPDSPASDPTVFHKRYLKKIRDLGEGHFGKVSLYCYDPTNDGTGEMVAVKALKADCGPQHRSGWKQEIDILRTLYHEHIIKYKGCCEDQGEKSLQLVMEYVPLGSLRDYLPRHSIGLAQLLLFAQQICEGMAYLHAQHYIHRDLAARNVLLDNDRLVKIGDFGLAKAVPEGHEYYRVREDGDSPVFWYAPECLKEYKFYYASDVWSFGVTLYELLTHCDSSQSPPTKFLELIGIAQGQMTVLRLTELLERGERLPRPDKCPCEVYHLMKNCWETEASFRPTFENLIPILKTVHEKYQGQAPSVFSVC
Sequence of ROCK2 enzyme (O75116 whole entry, species assumed): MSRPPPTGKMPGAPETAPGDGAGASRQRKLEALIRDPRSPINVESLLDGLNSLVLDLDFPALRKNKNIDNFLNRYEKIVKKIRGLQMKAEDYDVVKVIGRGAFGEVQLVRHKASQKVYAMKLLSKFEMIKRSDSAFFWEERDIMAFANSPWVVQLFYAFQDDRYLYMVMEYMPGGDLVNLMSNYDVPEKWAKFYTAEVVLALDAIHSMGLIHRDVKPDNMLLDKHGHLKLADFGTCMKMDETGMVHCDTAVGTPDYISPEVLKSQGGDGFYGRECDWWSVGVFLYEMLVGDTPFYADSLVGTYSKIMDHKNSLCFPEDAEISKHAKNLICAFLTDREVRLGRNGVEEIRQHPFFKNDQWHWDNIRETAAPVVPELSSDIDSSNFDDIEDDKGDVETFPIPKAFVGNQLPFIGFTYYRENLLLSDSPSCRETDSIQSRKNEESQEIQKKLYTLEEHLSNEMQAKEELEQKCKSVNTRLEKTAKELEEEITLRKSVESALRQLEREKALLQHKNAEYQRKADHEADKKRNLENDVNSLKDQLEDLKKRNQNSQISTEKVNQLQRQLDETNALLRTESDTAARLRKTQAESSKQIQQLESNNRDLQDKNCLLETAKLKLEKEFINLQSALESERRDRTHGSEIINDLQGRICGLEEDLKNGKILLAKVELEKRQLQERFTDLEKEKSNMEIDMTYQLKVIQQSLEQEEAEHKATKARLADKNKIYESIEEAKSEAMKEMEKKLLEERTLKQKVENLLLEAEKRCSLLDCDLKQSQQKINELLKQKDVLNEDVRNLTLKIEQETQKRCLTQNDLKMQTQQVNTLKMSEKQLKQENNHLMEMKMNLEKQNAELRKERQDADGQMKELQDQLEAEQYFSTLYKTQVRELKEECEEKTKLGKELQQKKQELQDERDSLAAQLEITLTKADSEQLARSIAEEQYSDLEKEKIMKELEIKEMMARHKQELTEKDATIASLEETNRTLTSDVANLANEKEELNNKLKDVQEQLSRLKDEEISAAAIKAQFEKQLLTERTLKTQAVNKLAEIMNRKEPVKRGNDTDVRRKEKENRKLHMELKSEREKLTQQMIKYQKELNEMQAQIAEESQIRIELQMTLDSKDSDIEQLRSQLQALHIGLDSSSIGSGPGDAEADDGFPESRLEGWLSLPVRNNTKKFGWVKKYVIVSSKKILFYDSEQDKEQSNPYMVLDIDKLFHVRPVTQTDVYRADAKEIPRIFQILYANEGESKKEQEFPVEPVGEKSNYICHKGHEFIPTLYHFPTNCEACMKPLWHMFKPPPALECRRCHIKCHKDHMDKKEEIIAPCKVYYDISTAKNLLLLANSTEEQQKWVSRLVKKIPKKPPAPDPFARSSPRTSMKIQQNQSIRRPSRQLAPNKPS

SMILES | IC50 [1] | IC50 [2] | IC50 [3] | IC50 [4] | IC50 [5] | Ki [1, 8] | Ki [4, 8] | Ki ([5]; Table 2) | IC50 [7] | IC50 [6]
CCc1cncc2ccc(NC(=O)[C@@H]3C[C@H]3c3ccc(S(=O)(=O)Nc4ncccn4)cc3)cc12 [Compound 7] | 5.8 nM |  | 1090 nM | 880 nM | 3.6 nM |  |  |  |  | 
Cc1cncc2ccc(NC(=O)[C@@H]3CC3c3ccc(S(=O)(=O)Nc4ncc(F)cn4)cc3)cc12 (stereo partly shown) [Compound 8] | 3.9 nM |  | 121 nM | 93 nM | 7.3 nM |  |  |  |  | 
O=C(Nc1ccc2cncc(C(F)(F)F)c2c1)[C@@H]1CC1c1ccc(S(=O)(=O)Nc2ncccn2)cc1 (stereo partly shown) [Compound 9] | 8.2 nM |  | 1570 nM | 1160 nM | 14 nM |  |  |  |  | 
Cc1cncc2ccc(NC(=O)[C@@H]3CC3c3ccc(S(=O)(=O)Nc4cnccn4)cc3)cc12 (stereo partly shown) [Compound 10] | 14 nM |  | 220 nM | 74 nM | 105 nM |  |  |  |  | > 1000 nM
Cc1cncc2ccc(NC(=O)[C@@H]3C[C@H]3c3ccc(S(=O)(=O)Nc4cncc(C5=CCNCC5)n4)cc3)cc12 [Compound 11] | 135 nM |  | 153 nM | 15 nM | 765 nM |  |  |  |  | 
Cc1cncc2ccc(NC(=O)[C@@H]3C[C@H]3c3ccc(S(=O)(=O)NC4CCNC4)cc3)cc12 (stereo partly shown) [Compound 12] | 175 nM |  | 21 nM | 21 nM | 759 nM |  |  |  |  | 
O=C(Nc1ccc2cncc(Cl)c2c1)[C@@H]1C[C@H]1c1ccc(S(=O)(=O)Nc2ccc(F)cn2)cc1 [Compound 15] | 4.8 nM |  | 156 nM | 56 nM | 88 nM |  |  |  |  | 
CCc1cncc2ccc(NC(=O)[C@@H]3CC3c3ccc(S(=O)(=O)Nc4ccccn4)cc3)cc12 (stereo partly shown) [Compound 17] | 4.2 nM |  | 44 nM | 45 nM |  |  |  |  |  | 
O=C(Nc1ccc2cnccc2c1)[C@@H]1CC1c1ccc(S(=O)(=O)Nc2ccccn2)c(F)c1 (stereo partly shown) [Compound 18] | 19.5 nM |  | 6.4 nM | 4 nM | 17.5 nM |  |  |  |  | 
O=C(Nc1ccc2cnccc2c1)[C@@H]1CC1c1cc(F)ccc1S(=O)(=O)Nc1ccccn1 (stereo partly shown) [Compound 19] | 6750 nM |  | 7400 nM |  |  |  |  |  |  | 
Cc1cncc2ccc(NC(=O)[C@@H]3CC3c3ccc(S(=O)(=O)Nc4cccnc4)cc3)cc12 (stereo partly shown) [Compound 27] |  |  |  |  | 159 nM |  |  |  |  | 
Cc1cncc2ccc(NC(=O)[C@@H]3C[C@H]3c3ccc(S(=O)(=O)Nc4cccnc4)cc3)cc12 [Compound 27] | 19 nM | 98 nM |  | 44 nM |  |  |  |  |  | 
Cc1cncc2ccc(NC(=O)[C@@H]3C[C@H]3c3ccc(S(=O)(=O)Nc4nccs4)cc3)cc12 [Compound 32] | 3.4 nM |  | 20 nM | 12.3 nM | 5 nM |  |  |  |  | 
O=C(Nc1cccnn1)c1ccc(C2C[C@H]2C(=O)Nc2ccc3cnccc3c2)cc1 (stereo partly shown) [Compound 175] |  |  |  |  |  |  |  |  | 650 nM | 

Now from value to compound, other results behind:

IC50 [1] | IC50 [2] | IC50 [3] | IC50 [4] | IC50 [5] | Ki [1, 8] | Ki [4, 8] | Ki ([5]; Table 2) | IC50 [7] | SMILES | IC50 [6]
4.8 nM | 7 nM | 156 nM | 56 nM | 88 nM |  |  |  |  | O=C(Nc1ccc2cncc(Cl)c2c1)[C@@H]1CC1c1ccc(S(=O)(=O)Nc2ccc(F)cn2)cc1 (mixture of isomers) [Compound 16a] | 
2.9 nM | 12 nM | 74 nM | 25 nM | 70 nM |  |  |  |  | O=C(Nc1ccc2cncc(Cl)c2c1)[C@@H]1CC1c1ccc(S(=O)(=O)Nc2ccc(F)cn2)cc1 (mixture of isomers) [Compound 16b] | 
148 nM |  | 16 nM | 4.9 nM | 1130 nM |  |  |  |  | Cc1cncc2ccc(NC(=O)[C@@H]3C[C@H]3c3ccc(S(=O)(=O)Nc4ncc(C5CCNCC5)cn4)cc3)cc12 [Compound 1] | 
 |  | 128 nM | 68 nM | 4.1 nM |  |  |  |  | O=C(Nc1ccc2cncc(Cl)c2c1)[C@@H]1C[C@H]1c1ccc(S(=O)(=O)Nc2ncccn2)cc1 [Compound 6] | 
 | 34 nM |  |  |  |  |  |  |  | Cc1cncc2ccc(NC(=O)[C@@H]3C[C@H]3c3ccc(S(=O)(=O)Nc4cnccn4)cc3)cc12 [Compound 10] | 
179 nM |  | 18 nM | 15 nM | 825 nM |  |  |  |  | Cc1cncc2ccc(NC(=O)[C@@H]3C[C@H]3c3ccc(S(=O)(=O)NC4CCCNC4)cc3)cc12 (stereo partly shown) [Compound 13] | 
9 nM |  | 122 nM | 108 nM | 16 nM |  |  |  |  | O=C(Nc1ccc2cncc(C(F)(F)F)c2c1)[C@@H]1C[C@H]1c1ccc(S(=O)(=O)Nc2ccccn2)cc1 [Compound 14] | 
2.4 nM |  | 30 nM | 20 nM | 6.9 nM |  |  |  |  | N#Cc1cncc2ccc(NC(=O)[C@@H]3CC3c3ccc(S(=O)(=O)Nc4ccccn4)cc3)cc12 (stereo partly shown) [Compound 20] | 
18 nM | 210 nM | 160 nM | 67 nM | 381 nM |  |  |  |  | O=C(Nc1ccc2cncc(Cl)c2c1)[C@@H]1CC1c1ccc(S(=O)(=O)Nc2cccnc2)cc1 (stereo partly shown) [Compound 28] | 57 nM
350 nM |  | 43 nM | 13.8 nM | > 5000 nM |  |  |  |  | O=C(Nc1ccc2cnccc2c1F)[C@@H]1C[C@H]1c1ccc(S(=O)(=O)Nc2cccnc2)cc1 [Compound 29] | 
 |  |  |  |  | 211 nM | 1 nM | 1190 nM | 12 nM | CN(C)Cc1ccc(NC(=O)c2cccc([C@@H]3C[C@H]3C(=O)Nc3ccc4cncc(Cl)c4c3)c2)nc1 [Compound 36] | 
